target: T1, human PTH1 receptor (Homo sapiens, UniProt Q03431); test: In vitro cAMP signal activity in HKRK-B7 cells (LLC-PK1 cells overexpressing the human PTH1 receptor); type: cell-based; details: HKRK-B7 cells; compound at 1×10^−3 M; […]; 0.1 µM
T1 sequence (Q03431 27-593): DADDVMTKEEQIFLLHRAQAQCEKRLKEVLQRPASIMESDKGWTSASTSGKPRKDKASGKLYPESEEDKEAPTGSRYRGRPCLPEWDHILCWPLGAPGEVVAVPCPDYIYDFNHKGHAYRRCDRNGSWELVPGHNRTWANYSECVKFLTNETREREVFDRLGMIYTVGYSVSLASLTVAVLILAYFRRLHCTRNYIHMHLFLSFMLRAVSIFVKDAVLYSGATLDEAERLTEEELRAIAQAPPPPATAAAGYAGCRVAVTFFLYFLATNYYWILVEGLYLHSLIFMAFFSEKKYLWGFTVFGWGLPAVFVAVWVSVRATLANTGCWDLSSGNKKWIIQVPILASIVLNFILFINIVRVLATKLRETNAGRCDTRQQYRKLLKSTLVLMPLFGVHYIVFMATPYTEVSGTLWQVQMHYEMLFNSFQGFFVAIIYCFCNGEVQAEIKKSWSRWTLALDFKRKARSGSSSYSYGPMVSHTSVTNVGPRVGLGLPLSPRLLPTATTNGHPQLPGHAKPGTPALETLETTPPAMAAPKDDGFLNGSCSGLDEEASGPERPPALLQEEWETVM

SMILES | cAMP production activity (%)
CNN(C)C(=O)c1cc(C)c(CCS(=O)(=O)N2CCC3(CC2)N=C(C2CCC(CCC(F)(F)F)CC2)NC3=O)c(C)c1 (stereo not shown) [Compound 888, 3,5-Dimethyl-4-(2-{4-oxo-2-[4-(3,3,3-trifluoro-propyl)-cyclohexyl]-1,3,8-triaza-spiro[4.5]dec-1-ene-8-sulfonyl}-ethyl)-benzoic acid N,N′-dimethyl-hydrazide] | 86%

same assay, conditions: HKRK-B7 cells; compound at 1×10^−3 M; cAMP produced as percentage of that produced by hPTH(1-34) at 100 nM

SMILES | cAMP production activity (%)
O=C1NC(CCc2cccc3ccccc23)=NC12CCN(S(=O)(=O)c1cccc(Cl)c1)CC2 [Compound 34, 8-(3-chloro-benzenesulfonyl)-2-(2-naphthalen-1-yl-ethyl)-1,3,8-triaza-spiro[4.5]dec-1-en-4-one] | 16%
Cc1cc(N(CC(F)(F)F)C(N)=O)ccc1CCS(=O)(=O)N1CCC2(CC1)N=C(c1cccc(OC(F)(F)F)c1)NC2=O [Compound 877, 1-(3-methyl-4-{2-[4-oxo-2-(3-trifluoromethoxy-phenyl)-1,3,8-triaza-spiro[4.5]dec-1-ene-8-sulfonyl]-ethyl}-phenyl)-1-(2,2,2-trifluoro-ethyl)-urea] | 35%
Cc1cc(N2C[C@H](CO)OC2=O)ccc1CCS(=O)(=O)N1CCC2(CC1)N=C(c1cccc(C(F)(F)F)c1)NC2=O [Compound 296, 8-{2-[4-((R)-5-hydroxymethyl-2-oxo-oxazolidin-3-yl)-2-methyl-phenyl]-ethanesulfonyl}-2-(3-trifluoromethyl-phenyl)-1,3,8-triaza-spiro[4.5]dec-1-en-4-one] | 65%
CC(=O)Nc1cc(C)c(CCS(=O)(=O)N2CCC3(CC2)N=C(C2CCCCC2)NC3=O)c(C)c1 [Compound 302, N-{4-[2-(2-cyclohexyl-4-oxo-1,3,8-triaza-spiro[4.5]dec-1-ene-8-sulfonyl)-ethyl]-3,5-dimethyl-phenyl}-acetamide] | 95%
CNc1cc(C)c(CCS(=O)(=O)N2CCC3(CC2)N=C(c2cccc(SC(F)(F)F)c2)NC3=O)c(C)c1 [Compound 1036, 8-[2-(2,6-dimethyl-4-methylamino-phenyl)-ethanesulfonyl]-2-(3-trifluoromethylsulfanyl-phenyl)-1,3,8-triaza-spiro[4.5]dec-1-en-4-one] | 82%
Cc1cc(C(=O)N2CCC(O)(CO)CC2)cc(C)c1CCS(=O)(=O)N1CCC2(CC1)N=C(c1cccc(OC(F)(F)F)c1)NC2=O [Compound 831, 8-{2-[4-(4-hydroxy-4-hydroxymethyl-piperidine-1-carbonyl)-2,6-dimethyl-phenyl]-ethanesulfonyl}-2-(3-trifluoromethoxy-phenyl)-1,3,8-triaza-spiro[4.5]dec-1-en-4-one] | 4.7%
CC(=O)N(CCOCCO)c1ccc(/C=C/S(=O)(=O)N2CCC3(CC2)N=C(C2CCC(CCC(F)(F)F)CC2)NC3=O)c(C)c1 (stereo not shown) [Compound 544, N-[2-(2-hydroxy-ethoxy)-ethyl]-N-[3-methyl-4-((E)-2-{4-oxo-2-[4-(3,3,3-trifluoro-propyl)-cyclohexyl]-1,3,8-triaza-spiro[4.5]dec-1-ene-8-sulfonyl}-vinyl)-phenyl]-acetamide] | 80%
O=C1NC(C2CCCCC2)=NC12CCN(S(=O)(=O)/C=C/c1cccc3[nH]ccc13)CC2 [Compound 182, 2-cyclohexyl-8-[(E)-2-(1H-indol-4-yl)-ethenesulfonyl]-1,3,8-triaza-spiro[4.5]dec-1-en-4-one] | 38%
CC1(C2=NC3(CCN(S(=O)(=O)c4cccc(Cl)c4)CC3)C(=O)N2)CCCCC1 [Compound 14, 8-(3-chloro-benzenesulfonyl)-2-(1-methyl-cyclohexyl)-1,3,8-triaza-spiro[4.5]dec-1-en-4-one] | 38%
CC(C)(C)OC(=O)NCc1ccc(/C=C/S(=O)(=O)N2CCC3(CC2)N=C(C2CCCCC2)NC3=O)c(C(F)(F)F)c1 [Compound 205, {4-[(E)-2-(2-cyclohexyl-4-oxo-1,3,8-triaza-spiro[4.5]dec-1-ene-8-sulfonyl)-vinyl]-3-trifluoromethyl-benzyl}-carbamic acid tert-butyl ester] | 47%
Cc1cc(C(=O)N2CCC(C)(O)CC2)cc(C)c1/C=C/[S@TB4](=O)(=O)N1CCC2(CC1)N=C(c1ccc(OC(F)(F)F)c(F)c1)NC2=O [Compound 1094, 2-(3-fluoro-4-trifluoromethoxy-phenyl)-8-{(E)-2-[4-(4-hydroxy-4-methyl-piperidine-1-carbonyl)-2,6-dimethyl-phenyl]-ethenesulfonyl}-1,3,8-triaza-spiro[4.5]dec-1-en-4-one] | 100%
Cc1cc(C(=O)N2CCC(C)(O)CC2)cc(C)c1/C=C/S(=O)(=O)N1CCC2(CC1)N=C(c1ccc(Cl)c(Cl)c1)NC2=O [Compound 1185, 2-(3,4-Dichloro-phenyl)-8-{(E)-2-[4-(4-hydroxy-4-methyl-piperidine-1-carbonyl)-2,6-dimethyl-phenyl]-ethenesulfonyl}-1,3,8-triaza-spiro[4.5]dec-1-en-4-one] | 102%
Cc1cc(N(C)C(=O)C(F)(F)F)cc(C)c1CCS(=O)(=O)N1CCC2(CC1)N=C([C@H]1CC[C@H](C)CC1)NC2=O [Compound 931, N-(3,5-Dimethyl-4-{2-[2-(4-methyl-cyclohexyl)-4-oxo-1,3,8-triaza-spiro[4.5]dec-1-ene-8-sulfonyl]-ethyl}-phenyl)-2,2,2-trifluoro-N-methyl-acetamide] | 72%
CCC[C@@H]1CCC[C@H](C2=NC3(CCN(S(=O)(=O)/C=C/c4c(C)cc(N(C)C(N)=O)cc4C)CC3)C(=O)N2)C1 [Compound 1108, 1-(3,5-Dimethyl-4-{(E)-2-[4-oxo-2-((1S,3R)-3-propyl-cyclohexyl)-1,3,8-triaza-spiro[4.5]dec-1-ene-8-sulfonyl]-vinyl}-phenyl)-1-methyl-urea] | 99%
Cc1cc(S(=O)(=O)NC2CCN(Cc3ccccc3)CC2)ccc1/C=C/S(=O)(=O)N1CCC2(CC1)N=C(c1cccc(OC(F)(F)F)c1)NC2=O [Compound 596, N-(1-Benzyl-piperidin-4-yl)-3-methyl-4-{(E)-2-[4-oxo-2-(3-trifluoromethoxy-phenyl)-1,3,8-triaza-spiro[4.5]dec-1-ene-8-sulfonyl]-vinyl}-benzenesulfonamide] | 40%
CC(=O)N(CC#N)c1ccc(/C=C/S(=O)(=O)N2CCC3(CC2)N=C(c2cccc(OC(F)(F)F)c2)NC3=O)c(C)c1 [Compound 612, N-cyanomethyl-N-(3-methyl-4-{(E)-2-[4-oxo-2-(3-trifluoromethoxy-phenyl)-1,3,8-triaza-spiro[4.5]dec-1-ene-8-sulfonyl]-vinyl}-phenyl)-acetamide] | 62%
Cc1cc(C(=O)N2CCC[C@H]2C(N)=O)ccc1CCS(=O)(=O)N1CCC2(CC1)N=C(c1cccc(C(F)(F)F)c1)NC2=O [Compound 367, (S)-1-(3-methyl-4-{2-[4-oxo-2-(3-trifluoromethyl-phenyl)-1,3,8-triaza-spiro[4.5]dec-1-ene-8-sulfonyl]-ethyl}-benzoyl)-pyrrolidine-2-carboxylic acid amide] | 50%

same assay, conditions: HKRK-B7 cells; compound at 3×10^−4 M (* Compound 15); cAMP produced as percentage of that produced by hPTH(1-34) at 100 nM

SMILES | cAMP production activity (%)
CC(=O)N1CCC(C2=NC3(CCN(S(=O)(=O)c4cccc(Cl)c4)CC3)C(=O)N2)CC1 [Compound 15, 2-(1-acetyl-piperidin-4-yl)-8-(3-chloro-benzenesulfonyl)-1,3,8-triaza-spiro[4.5]dec-1-en-4-one] | 1.8* %

From patent US9169254B2, “Spiroimidazolone derivative” (Chugai Seiyaku Kabushiki Kaisha, priority 2009, dated 2015)
